Reference: ChEMBL document CHEMBL1129876, “The synthesis and activity of spiroindane growth hormone secretagogues” (Bioorg Med Chem Lett, 1997)

Tests used:
Canis familiaris [1] = experiment: Tested for response in dogs after iv administration of 0.025 mg/kg; cured/treated is 1/1; assay type: functional, organism-based; parameters: dose 0.025 mg/kg; details: Canis lupus familiaris
Canis familiaris [2] = experiment: Tested for response in dogs after peroral administration of 0.25 mg/kg; cured/treated is 2/2; assay type: functional, organism-based; parameters: dose 0.25 mg/kg; details: Canis lupus familiaris
Rattus norvegicus = organism: Rattus norvegicus; experiment: The compound was evaluated for its ability to release growth hormone from rat pituitary cells.; assay type: functional, cell-based; details: Pituitary gland cell
Canis familiaris [3] = experiment: Tested for response in dogs after peroral administration of 0.125 mg/kg; cured/treated is 1/2; assay type: functional, organism-based; parameters: dose 0.125 mg/kg; details: Canis lupus familiaris
Canis familiaris [4] = experiment: Tested for response in dogs after oral administration of 1 mg/kg; cured/treated is 2/2; assay type: functional, organism-based; parameters: dose 1 mg/kg; details: Canis lupus familiaris
Canis familiaris [5] = experiment: Tested for response in dogs after oral administration of 0.5 mg/kg; cured/treated is 1/2; assay type: functional, organism-based; parameters: dose 0.5 mg/kg; details: Canis lupus familiaris
Canis familiaris [6] = experiment: Tested for response in dogs after iv administration of 0.05 mg/kg; cured/treated is 1/2; assay type: functional, organism-based; parameters: dose 0.05 mg/kg; details: Canis lupus familiaris
Canis familiaris [7] = experiment: Tested for response in dogs after oral administration of 1 mg/kg; cured/treated is 1/1; assay type: functional, organism-based; parameters: dose 1 mg/kg; details: Canis lupus familiaris
Canis familiaris [8] = experiment: Tested for response in dogs after iv administration of 0.1 mg/kg; cured/treated is 1/1; assay type: functional, organism-based; parameters: dose 0.1 mg/kg; details: Canis lupus familiaris
Canis familiaris [9] = experiment: Tested for response in dogs after oral administration of 2 mg/kg; cured/treated is 0/1; assay type: functional, organism-based; parameters: dose 2 mg/kg; details: Canis lupus familiaris
Canis familiaris [10] = experiment: Tested for response in dogs after iv administration of 0.05 mg/kg; cured/treated is 0/1; assay type: functional, organism-based; parameters: dose 0.05 mg/kg; details: Canis lupus familiaris
Canis familiaris [11] = experiment: Tested for response in dogs after iv administration of 0.1 mg/kg; cured/treated is 0/1; assay type: functional, organism-based; parameters: dose 0.1 mg/kg; details: Canis lupus familiaris
Canis familiaris [12] = experiment: Tested for response in dogs after peroral administration of 1 mg/kg; cured/treated is 2/2; assay type: functional, organism-based; parameters: dose 1 mg/kg; details: Canis lupus familiaris
Canis familiaris [13] = experiment: Tested for response in dogs after peroral administration of 0.5 mg/kg; cured/treated is 1/2; assay type: functional, organism-based; parameters: dose 0.5 mg/kg; details: Canis lupus familiaris
Canis familiaris [14] = experiment: Tested for response in dogs after iv administration of 0.05 mg/kg; cured/treated is 1/1; assay type: functional, organism-based; parameters: dose 0.05 mg/kg; details: Canis lupus familiaris

For CC(C)(N)C(=O)N[C@H](CCCc1ccccc1)C(=O)N1CCC2(CC1)CC(=O)c1ccccc12, the Response (Canis familiaris [1]) was “cured/treated is 1/1”, the Response (Canis familiaris [2]) was “cured/treated is 1/1” and the EC50 (Rattus norvegicus) was 0.8 nM. For the same compound, the Response (Canis familiaris [3]) was “cured/treated is 1/1”.

In the case of CC(C)(N)C(=O)N[C@H](Cc1c[nH]c2ccccc12)C(=O)N1CCC2(CC1)CC(=O)c1ccccc12, the Response (Canis familiaris [4]) is reported as “cured/treated is 1/2”, the EC50 (Rattus norvegicus) is reported as 1.2 nM and the Response (Canis familiaris [5]) is reported as “cured/treated is 1/2”. For the same compound, the Response (Canis familiaris [6]) was “cured/treated is 1/2”.

CC(C)(N)C(=O)N[C@H](CCCc1ccccc1)C(=O)N1CCC2(CC1)CC(O)c1ccccc12 (stereo partly specified) was tested, and the EC50 (Rattus norvegicus) was 0.72 nM.

With CC(C)(N)C(=O)N[C@H](COCc1ccccc1)C(=O)N1CCC2(CCc3ccccc32)CC1 the EC50 (Rattus norvegicus) was 17 nM.

With CC(C)(N)C(=O)N[C@H](Cc1c[nH]c2ccccc12)C(=O)N1CCC2(CCc3ccccc32)CC1 the Response (Canis familiaris [7]) was “cured/treated is 0/1”, the Response (Canis familiaris [8]) was “cured/treated is 0/1” and the Response (Canis familiaris [9]) was “cured/treated is 0/1”. For the same compound, the Response (Canis familiaris [10]) was “cured/treated is 0/1”.

CC(C)(N)C(=O)N[C@H](CCCc1ccccc1)C(=O)N1CCC2(CCc3ccccc32)CC1 was tested, and the Response (Canis familiaris [11]) was “cured/treated is 0/1”, the Response (Canis familiaris [12]) was “cured/treated is 0/1” and the Response (Canis familiaris [13]) was “cured/treated is 0/1”. It also gave an EC50 (Rattus norvegicus) of 10 nM.

With CC(C)(N)C(=O)N[C@H](Cc1c[nH]c2ccccc12)C(=O)N1CCC2(CC1)CC(O)c1ccccc12 (stereo partly specified) the Response (Canis familiaris [14]) was “cured/treated is 1/1”, the Response (Canis familiaris [12]) was “cured/treated is 1/1” and the Response (Canis familiaris [13]) was “cured/treated is 1/1”. The EC50 (Rattus norvegicus) was 0.6 nM.

CC(C)(N)C(=O)N[C@H](Cc1c[nH]c2ccccc12)C(=O)N1CCC2(CC1)c1ccccc1CC2O (stereo partly specified) showed an EC50 (Rattus norvegicus) of 65 nM.

For CC(C)(N)C(=O)N[C@H](Cc1c[nH]c2ccccc12)C(=O)N1CCC2(CC1)c1ccccc1C(O)C2O (stereo partly specified), the EC50 (Rattus norvegicus) was 30 nM.

With CC(C)(N)C(=O)N[C@H](COCc1ccccc1)C(=O)N1CCC2(CC1)CC(O)c1ccccc12 (stereo partly specified) the EC50 (Rattus norvegicus) was 4 nM.

Compound CC(C)(N)C(=O)N[C@H](COCc1ccccc1)C(=O)N1CCC2(CC1)CC(=O)c1ccccc12 has an EC50 (Rattus norvegicus) of 4.8 nM.
